Experimental data published in ChEMBL document CHEMBL5608174, “Synthesis and biological evaluation of 4-phenyl-5-quinolinyl substituted isoxazole analogues as potent cytotoxic and tubulin polymerization inhibitors against ESCC” (Eur J Med Chem, 2024).
Calls of active or inactive are those of the source. The calls are words filed in the database; no cut-off is given here.

Legend:
KYSE-30 [1] = assay: Induction of morphological changes in human KYSE-30 cells assessed as deformation at 5 to 20 nmol/L incubated for 48 hrs by Bright field microscopic analysis; format: functional, cell-based; conditions: dose 5-20 nmol/L
KYSE-30 [2] = assay: Induction of apoptosis in human KYSE-30 cells assessed as viable cells at 5 nmol/L incubated for 48 hrs by Annexin V-FITC/PI staining based flow cytometry analysis (reference value: 88.76 %); format: functional; conditions: read-out: Activity
KYSE-70 cell line [3] = assay: Induction of apoptosis in human KYSE-70 cells assessed as early apoptotic cells at 5 nmol/L incubated for 48 hrs by Annexin V-FITC/PI staining based flow cytometry analysis (reference value: 1.78%); format: functional
KYSE-70 cell line [4] = assay: Inhibition of cell migration in human KYSE-70 cells at 2 to 6 nmol/L incubated upto 48 hrs by wound healing assay; format: functional, cell-based; conditions: dose 2-6 nmol/L
KYSE-30 [5] = assay: Antitumor activity against human KYSE-30 cells xenografted in female BALB/c-nu nude mouse assessed as reduction in tumor weight at 6 to 12 mg/kg, ip administered daily for 15 days; format: functional, organism-based; conditions: dose 6-12 mg/kg, time 15.0 day

SMILES: COc1ccc(-c2cnoc2-c2cc(C)nc3ccccc23)cc1
- Activity (KYSE-30 [1]): Active
- viability at 0.005 µM (KYSE-30 [2]): 38.8%
- Activity (KYSE-70 cell line [3]): 8.24%
- inhibition (KYSE-70 cell line [4]): Active
- Activity (KYSE-30 [5]): Active
